Data published in patent US20060110451A1, “Formulations of [1,4]diazepino[6,7,1-IJ]quinoline derivatives” (priority 2004, published 2006).
Read-outs that look alike come from different tables or passages of the source.

Experiment: Ascending multiple dose pharmacokinetics of enteric coated capsules in healthy subjects
Type: in vivo, human
Conditions: for Tmax / half-life / AUC(0-t) / Cmax / AUC(0-inf): human, plasma
Procedure: Ascending multiple doses of 25, 50, 75, 100, 150, and 250 mg Compound A.HCl were administered as twice-daily regimen (q12h) for 14 days in cohorts of 8 healthy subjects (6 active and 2 placebo). Blood samples for Compound A.HCl analysis were obtained on days 1 and 14 within 2 hours of test article administration and at various time points from 0.5 to 48 hours after test article administration. Doses were administered orally after an overnight fast of at least 10 hours on these 2 days. Trough PK samples were collected on days 7, 10, and 12 to assess whether steady-state had been reached.
A total of 48 subjects contributed pharmacokinetic data for this analysis. […] FIGS. 4A and 4B show the relationship between Cmax vs. dose and AUC vs. dose, respectively.

Cl.c1cc2c3c(c1)[C@H]1CCC[C@H]1CN3CCNC2 [Compound A.HCl, (9aR,12aS)-4,5,6,7,9,9a,10,11,12,12a-decahydrocyclopenta[c][1,4]diazepino[6,7,1-ij]quinoline hydrochloride]
steady-state Cl/F lower in comparison to the lower dose groups (250 mg q12h dose): 54-60%
time of minor secondary peak (day 14 (steady state), most subjects, all dose groups): 24 to 28 h
dose-proportionality of single dose and steady-state AUC and Cmax (dose range 25 to 150 mg q12h): approximately linear dose-proportionality
Tmax (oral, healthy subjects, single and multiple dose administration, enteric-coated formulation, 25-250 mg, read-out: mean Tmax): 4 to 6 h
half-life (oral, multiple dose, read-out: mean elimination t1/2): 6 to 8 h
half-life (oral, single dose, read-out: mean elimination t1/2): 8 to 11 h
AUC(0-t) (po, 25 mg, healthy subjects, multiple oral doses (q12 h) 25 mg, day 14, read-out: AUCss (AUC0-12) (Geom. Mean)): 8 ng·h/mL
AUC(0-t) (po, 25 mg, healthy subjects, multiple oral doses (q12 h) 25 mg, day 14, read-out: AUCss (AUC0-12) (Mean)): ~8.73 ng·h/mL
Cmax (po, 25 mg, healthy subjects, multiple oral doses (q12 h) 25 mg, day 14, read-out: Cmax (Geom. Mean)): 1.16 ng/mL
Cmax (po, 25 mg, healthy subjects, multiple oral doses (q12 h) 25 mg, day 14, read-out: Cmax (Mean)): 1.22 ng/mL
Tmax (po, 25 mg, healthy subjects, multiple oral doses (q12 h) 25 mg, day 14, read-out: Tmax (Geom. Mean)): 3.7 h
Tmax (po, 25 mg, healthy subjects, multiple oral doses (q12 h) 25 mg, day 14, read-out: Tmax (Mean)): 4 h
half-life (po, 25 mg, healthy subjects, multiple oral doses (q12 h) 25 mg, day 14, read-out: t1/2 (Geom. Mean) (converted)): 6.25 h
half-life (po, 25 mg, healthy subjects, multiple oral doses (q12 h) 25 mg, day 14, read-out: t1/2 (Mean) (converted)): 6.35 h
Cmax (po, 25 mg, healthy subjects, single oral dose 25 mg, day 1, read-out: Cmax (Geom. Mean)): 0.81 ng/mL
Cmax (po, 25 mg, healthy subjects, single oral dose 25 mg, day 1, read-out: Cmax (Mean)): 0.87 ng/mL
Tmax (po, 25 mg, healthy subjects, single oral dose 25 mg, day 1, read-out: Tmax (Geom. Mean)): 5 h
Tmax (po, 25 mg, healthy subjects, single oral dose 25 mg, day 1, read-out: Tmax (Mean)): 5.2 h
AUC(0-t) (po, 50 mg, healthy subjects, multiple oral doses (q12 h) 50 mg, day 14, read-out: AUCss (AUC0-12) (Geom. Mean)): 25.3 ng·h/mL
AUC(0-t) (po, 50 mg, healthy subjects, multiple oral doses (q12 h) 50 mg, day 14, read-out: AUCss (AUC0-12) (Mean)): ~26.5 ng·h/mL
Cmax (po, 50 mg, healthy subjects, multiple oral doses (q12 h) 50 mg, day 14, read-out: Cmax (Geom. Mean)): 3.27 ng/mL
Cmax (po, 50 mg, healthy subjects, multiple oral doses (q12 h) 50 mg, day 14, read-out: Cmax (Mean)): 3.39 ng/mL
Tmax (po, 50 mg, healthy subjects, multiple oral doses (q12 h) 50 mg, day 14, read-out: Tmax (Geom. Mean)): 5.6 h
Tmax (po, 50 mg, healthy subjects, multiple oral doses (q12 h) 50 mg, day 14, read-out: Tmax (Mean)): 5.7 h
half-life (po, 50 mg, healthy subjects, multiple oral doses (q12 h) 50 mg, day 14, read-out: t1/2 (Geom. Mean) (converted)): 7.58 h
half-life (po, 50 mg, healthy subjects, multiple oral doses (q12 h) 50 mg, day 14, read-out: t1/2 (Mean) (converted)): 7.64 h
AUC(0-inf) (po, 50 mg, healthy subjects, single oral dose 50 mg, day 1, read-out: AUC0-∞ (Geom. Mean)): 22.8 ng·h/mL
AUC(0-inf) (po, 50 mg, healthy subjects, single oral dose 50 mg, day 1, read-out: AUC0-∞ (Mean)): 23.5 ng·h/mL
Cmax (po, 50 mg, healthy subjects, single oral dose 50 mg, day 1, read-out: Cmax (Geom. Mean)): 2.29 ng/mL
Cmax (po, 50 mg, healthy subjects, single oral dose 50 mg, day 1, read-out: Cmax (Mean)): 2.35 ng/mL
Tmax (po, 50 mg, healthy subjects, single oral dose 50 mg, day 1, read-out: Tmax (Geom. Mean)): 5 h
Tmax (po, 50 mg, healthy subjects, single oral dose 50 mg, day 1, read-out: Tmax (Mean)): 5.3 h
half-life (po, 50 mg, healthy subjects, single oral dose 50 mg, day 1, read-out: t1/2 (Geom. Mean) (converted)): 9.69 h
half-life (po, 50 mg, healthy subjects, single oral dose 50 mg, day 1, read-out: t1/2 (Mean) (converted)): 10.7 h
AUC(0-t) (po, 75 mg, healthy subjects, multiple oral doses (q12 h) 75 mg, day 14, read-out: AUCss (AUC0-12) (Geom. Mean)): 24.1 ng·h/mL
AUC(0-t) (po, 75 mg, healthy subjects, multiple oral doses (q12 h) 75 mg, day 14, read-out: AUCss (AUC0-12) (Mean)): ~24.9 ng·h/mL
Cmax (po, 75 mg, healthy subjects, multiple oral doses (q12 h) 75 mg, day 14, read-out: Cmax (Geom. Mean)): 2.92 ng/mL
Cmax (po, 75 mg, healthy subjects, multiple oral doses (q12 h) 75 mg, day 14, read-out: Cmax (Mean)): 3.05 ng/mL
Tmax (po, 75 mg, healthy subjects, multiple oral doses (q12 h) 75 mg, day 14, read-out: Tmax (Geom. Mean)): 6.3 h
Tmax (po, 75 mg, healthy subjects, multiple oral doses (q12 h) 75 mg, day 14, read-out: Tmax (Mean)): 6.3 h
half-life (po, 75 mg, healthy subjects, multiple oral doses (q12 h) 75 mg, day 14, read-out: t1/2 (Geom. Mean) (converted)): 6.38 h
half-life (po, 75 mg, healthy subjects, multiple oral doses (q12 h) 75 mg, day 14, read-out: t1/2 (Mean) (converted)): 6.45 h
AUC(0-inf) (po, 75 mg, healthy subjects, single oral dose 75 mg, day 1, read-out: AUC0-∞ (Geom. Mean)): 16.8 ng·h/mL
AUC(0-inf) (po, 75 mg, healthy subjects, single oral dose 75 mg, day 1, read-out: AUC0-∞ (Mean)): 16.9 ng·h/mL
Cmax (po, 75 mg, healthy subjects, single oral dose 75 mg, day 1, read-out: Cmax (Geom. Mean)): 1.56 ng/mL
Cmax (po, 75 mg, healthy subjects, single oral dose 75 mg, day 1, read-out: Cmax (Mean)): 1.6 ng/mL
Tmax (po, 75 mg, healthy subjects, single oral dose 75 mg, day 1, read-out: Tmax (Geom. Mean)): 5.3 h
Tmax (po, 75 mg, healthy subjects, single oral dose 75 mg, day 1, read-out: Tmax (Mean)): 5.5 h
half-life (po, 75 mg, healthy subjects, single oral dose 75 mg, day 1, read-out: t1/2 (Geom. Mean) (converted)): 7.93 h
